Several values for one entry are separate records, joined by “and”; a condition that tells them apart may be missing. Identical values can stand only once. Entries after “also recorded” stand apart in the source; their conditions may differ. *1 amine or outer side, *2 acyl side, *3 side chain or, on linkers, in order; H or OH if unused. Where a SMILES comes first, the peptide text is derived from it. Side-chain parts run from the residue outwards. [ ]: non-standard residue; d: D form. The star is where a group is joined. Ethylenediamine = C(CN[*:2])N[*:1]; Hyp = O=C(O)[C@@H]1C[C@@H](O)CN1; Phg = N[C@H](C(=O)O)c1ccccc1; CO = O=C([*:1])[*:2]; Bn = c1ccc(C*)cc1
Key:
[1] = tested on: hyperplastic lesions, LCIS and DCIS of human mammary gland; assay: Proof of principle clinical trial, biopsies before and after treatment (Ki67, TUNEL); assay type: in vivo
From the text: Background: Antiestrogens or aromatase inhibitors are used for breast cancer chemoprevention. These treatments cause unpleasant side effects including hot flashes and vaginal dryness. We have previously shown that IGF-I is required to permit estrogen and progesterone action in the mammary gland. […] Menopausal symptoms would not likely to occur with SOM230 since estrogen is not lowered. Material and Methods: We have approached this issue in several ways. 1) We developed a model of hyperplasia in hypophysectomized and oophorectomized female rats. Hyperplasia was induced by treatment with 600 mcg hGH and follicular phase concentrations of estradiol. Hyperplasia was assessed histologically in sections of mammary gland. 2) To assess translatability to humans we assessed cell proliferation and apoptosis in normal human breast from reduction mammoplasties and samples of usual hyperplasia. 3) We also determined availability of SST receptors in samples of atypical ductal hyperplasia and DCIS, and 4) We have begun to determine whether SOM230 will prevent hyperplasia in humans at risk for breast cancer as it does in rats.
A proof of principle clinical trial is underway to further confirm whether SOM230 inhibits cell proliferation and increases apoptosis in human mammary gland as it does in rats. Data is presently available on 11 enlisted subjects. All patients had atypical hyperplasia on core biopsy and were given 600 ug SOM230 twice daily by injection. Data is available on 8 patients who had forms of hyperplasia that increase the likelihood of developing breast cancer. […] The effect of SOM230 on apoptosis and cell proliferation in hyperplastic lesions in the 8 patients is graphed in FIG. 17. This was also true in 2 cases of LCIS, a pre-cancerous condition, and one case of ductal carcinoma in situ, a cancerous situation. Apoptosis and cell proliferation is graphed for the 2 lobular hyperplasia patients in FIG. 18. FIG. 19 provides a DCIS patient sample cell staining for TUNEL and Ki67 before and after SOM230 administration. DCIS is a very common type of noninvasive breast cancer in women. Thus, human beings respond to SOM230 by inhibiting IGF-I action in the mammary gland. Taken together with our data on relative effects of SOM230 and Tamoxifen our data provide evidence that SOM230 will be at least as effective in preventing or treating breast cancer as Tamoxifen.

[2] = tested on: pYIRS-1 (phosphorylated IRS-1), product of IGF-I action; assay: Immunostaining for phosphorylated IRS-1 in mammary gland, hGH+E2 model; assay type: in vivo, rat; details: hGH+E2 treated animals; staining most intense with hGH+E2
From the text: FIG. 12 depicts immunostaining for pYIRS-1 (phosphorylated IRS-1) in a representative E2 treated control (upper left), an hGH+E2 treated animal (upper right), an hGH+E2+SOM230 treated animal (lower left) and an hGH+E2+tamoxifen treated animal (lower right). The intensity of staining parallels IGF-I action as phosphorylated IRS-1 is a product of IGF-I action. In this study, staining (brown color) was most intense in response to hGH+E2 and was inhibited by both SOM230 and tamoxifen. […] This reflection of inhibition of IGF-I activity also supports the greater inhibitory effect of SOM230 over that of tamoxifen.

[3] = tested on: hGH induced TEB formation; assay: Hyperplastic terminal endbuds (TEBs) in mammary gland whole mounts, hGH+E2 model; assay type: in vivo, rat; details: for TEB area: Table 2, mean of 3 animals, hGH + E control 43.1 ± 2.9, P 0.002
From the text: At the end of 7 days one lumbar mammary gland was removed for whole mount analysis and the other for histological analysis. Hyperplastic TEBs were counted in the whole mounts. […] Representative photomicrographs of the whole mounts are provided in FIG. 5 and suppression by the different treatments is shown graphically in FIG. 6.

[4] = tested on: TUNEL labeled cells in mammary gland; assay: Apoptosis by TUNEL staining in mammary gland, hGH+E2 model; assay type: in vivo, rat; details: for % TUNEL labeled cells, DH structure Mod + mild / % TUNEL labeled cells, Normal gland: 3 animals, 7 days; for % TUNEL labeled cells, DH structure Mod + mild: hGH + E2 control 1.9 ± 0.2 (P < 0.002); for % TUNEL labeled cells, Normal gland: hGH + E2 control 2.3 ± 0.1 (P < 0.001); for apoptosis / cell death (in words): hGH+E2 model versus hGH+E2 control
From the text: We also looked at the effect of the various treatment regimens on apoptosis. GH+E2 inhibited apoptosis, with the results are as follows. […] The percent TUNEL labeled cells is depicted in TABLE 5 below.

[5] = 8 hyperplasia patients, 600 ug twice daily by injection, biopsy before/after
[6] = lobular carcinoma in situ patients (2 cases), excisional versus core biopsy

SMILES: NCCCC[C@@H]1NC(=O)[C@@H](Cc2c[nH]c3ccccc23)NC(=O)[C@H](c2ccccc2)NC(=O)[C@@H]2C[C@@H](OC(=O)NCCN)CN2C(=O)[C@H](Cc2ccccc2)NC(=O)[C@H](Cc2ccc(OCc3ccccc3)cc2)NC1=O [SOM230] (cyclo([Hyp]([CO-Ethylenediamine])[Phg][dW]KY(Bn)F))
- apoptosis (TUNEL assay) in hyperplastic lesions [1, 5]: increase in apoptosis
- cell proliferation (Ki67 assay) in hyperplastic lesions [1, 5]: inhibition of cell proliferation
- apoptosis (TUNEL) in LCIS [1, 6]: increased apoptosis
- cell proliferation (Ki67) in LCIS [1, 6]: decreased cell proliferation
- intensity of pYIRS-1 immunostaining [2]: inhibited
- TEB area, individual animals ([3]; Table 2, animal # 1-3, hGH + E controls 48549, 38496, 42285, listed as SOM): 18816 and 13652 and 15356
- TEB area [3]: reduced
- TEB area ([3]; listed as SOM): 15.9 ± 1.5 (μm^2) × 10^3
- number of hyperplastic TEBs in whole mounts ([3]; hGH+E2, 7 days, reduced from 86.5 (86) TEBs in hGH+E2 control): 27.5
- % TUNEL labeled cells, DH structure Mod + mild [4]: increase in apoptosis
- % TUNEL labeled cells, DH structure Mod + mild ([4]; listed as SOM): 5.5 ± 0.4%
- % TUNEL labeled cells, Normal gland [4]: increase in apoptosis
- % TUNEL labeled cells, Normal gland ([4]; listed as SOM): 6.5 ± 0.4%
- apoptosis / cell death (in words) [4]: increase in cell death; also recorded: increase in apoptosis; also recorded: more apoptosis
- apoptosis / cell death (in words) ([4]; listed as SOM 230): increase in apoptosis

— patent US20090325863A1, “Somatostatin analogs and IGF-I inhibition for breast cancer prevention” (priority 2008, published 2009)
